In US20190343908A1, “Therapeutic Combination for the Treatment of Cancer” (Nerium Biotechnology Inc., priority 2011, published 2019):

How the values were obtained:
[1] = system: CALU-1 (non-small cell lung carcinoma); assay: Methyl-Tetrazolium viability assay, CALU-1; type: cell-based, human
Source text: (§1) Three different viability assays were chosen to complement each other and yielded results dependent on concentration and cell line: the Methyl Tetrazolium dye assay, the Sulforhodamine B fluorescent dye assay, and the Crystal Violet dye assay.
The Methyl-Tetrazolium dye assay measures the activity of enzymes in mitochondria. The dye precursor is taken up by cells, where it undergoes reduction to the purple formazan. It measures only the mitochondrial activity and, thus, it is not always a reliable indication of whether the cells themselves are alive or dead, since even a recently dead cell has […] enzyme activity in mitochondria. Intracellular glucose concentration, pH, and time before assay all affect the measurements.
(§2) The Methyl Tetrazolium, Sulforhodamine B, and Crystal Violet assays were used to assess cell viabilities. The incubation times were 24 hours, 48 hours, and 72 hours. The Nerium oleander extract Anvirzel™ (a hot water extract of oleander obtained from Salud Integral, Honduras) was tested in concentrations ranging from 0.01 ng/mL to 10 ng/mL.
(§3) Cells were detached by trypsinization (Trypsin-0.25% EDTA, Invitrogen, 25200-072) during the logarithmic phase of culture growth and plated in 96-well plates (18.000 cells/well) (Corning, Costar 359) in a final volume of 200 μl of medium per well. […] The absorbance was measured after 24 hours, 48 hours, and 72 hours of incubation.
For the Methyl-Tetrazolium assay, the dye (Sigma, M2128; 5 mg/mL, diluted in phosphate-buffered saline) was added to each well and plates were incubated for 3 hours at 37° C. After the end of the incubation period, the medium was discarded and the cells were rinsed with phosphate-buffered saline. Finally, the formazan crystals were dissolved in dimethylsulphoxide (Sigma, D4540).
(§4) The optical density of each plate was measured on a μQuant spectrophotometer and the data were analyzed with Gen5 software (μQuant Biomolecular Spectrophotometer MQX200 and Gen5™ Microplate Data Collection & Analysis software, BioTek® Instruments. Inc, April 2008). Absorbance was measured at 570 nm for all assays and a second wavelength was measured in order to subtract noise. For the Methyl-Tetrazolium assay this second wavelength was 630 nm and for the Sulforhodamine B and Crystal Violet assays it was 690 nm.

[2] = system: CALU-1 (non-small cell lung carcinoma); assay: Sulforhodamine B viability assay, CALU-1; type: cell-based, human
Source text: as §1
The Sulforhodamine B and Crystal Violet assays provide information about protein and were used to complement the Methyl-Tetrazolium dye assay. […] It is used for the quantification of cellular proteins of cultured cells. The assay using Crystal Violet, a dye that binds electrostatically to proteins and stains DNA, provides a reliable, simple assay for measuring viability of cells.
as §2, §3
For the Sulforhodamine B assay, 96-well plates were fixed by 10% trichloroacetic acid (Fluka, 91228) and were incubated at 4° C. for 1 hour. Afterwards, plates were rinsed with water and cells were stained with 0.4% Sulforhodamine B (Sigma, 341738), dissolved in 1% acetic acid (Carlo Ebra, 401422) for 15 minutes at room temperature (RT). The unbound stain was washed twice with 1% acetic acid. Finally, 10 mM Tris Buffer pH 10.5 (Sigma, T6791) was added to dissolve the dye.
as §4

[3] = CALU-1 Run 3, 0.1 μg/ml CDDP, 24 h
[4] = CALU-1 Run 3, 0.1 μg/ml CDDP, 48 h
[5] = CALU-1 Run 3, 0.1 μg/ml CDDP, 72 h
[6] = CALU-1 Run 3, 1 μg/ml CDDP, 24 h
[7] = CALU-1 Run 3, 1 μg/ml CDDP, 48 h
[8] = CALU-1 Run 3, 1 μg/ml CDDP, 72 h
[9] = CALU-1 Run 3, 10 μg/ml CDDP, 24 h
[10] = CALU-1 Run 3, 10 μg/ml CDDP, 48 h
[11] = CALU-1 Run 3, 10 μg/ml CDDP, 72 h
[12] = CALU-1 Run 3, 100 μg/ml CDDP, 24 h
[13] = CALU-1 Run 3, 100 μg/ml CDDP, 48 h
[14] = CALU-1 Run 3, 100 μg/ml CDDP, 72 h

`N.N.[Cl][Pt][Cl]` [cisplatin] was tested, and the “Average MTT 24 h” value ([1]; CALU-1 Run 1, 0.1 μg/ml CDDP) was 0.178, the “Average MTT 48 h” value ([1]; CALU-1 Run 1, 0.1 μg/ml CDDP) was 0.272 and the “Average MTT 72 h” value ([1]; CALU-1 Run 1, 0.1 μg/ml CDDP) was 0.272. For the same compound, the “Average MTT 24 h” value ([1]; CALU-1 Run 1, 1 μg/ml CDDP) was 0.024, the “Average MTT 48 h” value ([1]; CALU-1 Run 1, 1 μg/ml CDDP) was 0.024 and the “Average MTT 72 h” value ([1]; CALU-1 Run 1, 1 μg/ml CDDP) was 0.032. For the same compound, the “Average MTT 24 h” value ([1]; CALU-1 Run 1, 10 μg/ml CDDP) was 0.043, the “Average MTT 48 h” value ([1]; CALU-1 Run 1, 10 μg/ml CDDP) was 0.031 and the “Average MTT 72 h” value ([1]; CALU-1 Run 1, 10 μg/ml CDDP) was 0.024. The “Average MTT 24 h” value ([1]; CALU-1 Run 1, 100 μg/ml CDDP) was 0.033, the “Average MTT 48 h” value ([1]; CALU-1 Run 1, 100 μg/ml CDDP) was 0.033 and the “Average MTT 72 h” value ([1]; CALU-1 Run 1, 100 μg/ml CDDP) was 0.019. The “Average MTT 24 h” value ([1]; CALU-1 Run 2, 0.1 μg/ml CDDP) was 0.244, the “Average MTT 48 h” value ([1]; CALU-1 Run 2, 0.1 μg/ml CDDP) was 0.322 and the “Average MTT 72 h” value ([1]; CALU-1 Run 2, 0.1 μg/ml CDDP) was 0.29. For the same compound, the “Average MTT 24 h” value ([1]; CALU-1 Run 2, 1 μg/ml CDDP) was 0.055, the “Average MTT 48 h” value ([1]; CALU-1 Run 2, 1 μg/ml CDDP) was 0.024 and the “Average MTT 72 h” value ([1]; CALU-1 Run 2, 1 μg/ml CDDP) was 0.021. For the same compound, the “Average MTT 24 h” value ([1]; CALU-1 Run 2, 10 μg/ml CDDP) was 0.056, the “Average MTT 48 h” value ([1]; CALU-1 Run 2, 10 μg/ml CDDP) was 0.019 and the “Average MTT 72 h” value ([1]; CALU-1 Run 2, 10 μg/ml CDDP) was 0.015. For the same compound, the “Average MTT 24 h” value ([1]; CALU-1 Run 2, 100 μg/ml CDDP) was 0.035, the “Average MTT 48 h” value ([1]; CALU-1 Run 2, 100 μg/ml CDDP) was 0.016 and the “Average MTT 72 h” value ([1]; CALU-1 Run 2, 100 μg/ml CDDP) was 0.018. The “Average MTT 24 h” value [1, 3] was 0.178, the “Average MTT 48 h” value [1, 4] was 0.281 and the “Average MTT 72 h” value [1, 5] was 0.295. The “Average MTT 24 h” value [1, 6] was 0.029, the “Average MTT 48 h” value [1, 7] was 0.033 and the “Average MTT 72 h” value [1, 8] was 0.031. The “Average MTT 24 h” value [1, 9] was 0.057, the “Average MTT 48 h” value [1, 10] was 0.025 and the “Average MTT 72 h” value [1, 11] was 0.022. The “Average MTT 24 h” value [1, 12] was 0.028, the “Average MTT 48 h” value [1, 13] was 0.026 and the “Average MTT 72 h” value [1, 14] was 0.002. The “Average SRB 24 h” value ([2]; CALU-1 Run 1, 0.1 μg/ml CDDP) was 1.457, the “Average SRB 48 h” value ([2]; CALU-1 Run 1, 0.1 μg/ml CDDP) was 1.939 and the “Average SRB 72 h” value ([2]; CALU-1 Run 1, 0.1 μg/ml CDDP) was 1.598. The “Average SRB 24 h” value ([2]; CALU-1 Run 1, 1 μg/ml CDDP) was 1.438, the “Average SRB 48 h” value ([2]; CALU-1 Run 1, 1 μg/ml CDDP) was 1.991 and the “Average SRB 72 h” value ([2]; CALU-1 Run 1, 1 μg/ml CDDP) was 1.5. For the same compound, the “Average SRB 24 h” value ([2]; CALU-1 Run 1, 10 μg/ml CDDP) was 1.401, the “Average SRB 48 h” value ([2]; CALU-1 Run 1, 10 μg/ml CDDP) was 1.563 and the “Average SRB 72 h” value ([2]; CALU-1 Run 1, 10 μg/ml CDDP) was 1.108. For the same compound, the “Average SRB 24 h” value ([2]; CALU-1 Run 1, 100 μg/ml CDDP) was 1.348, the “Average SRB 48 h” value ([2]; CALU-1 Run 1, 100 μg/ml CDDP) was 1.521 and the “Average SRB 72 h” value ([2]; CALU-1 Run 1, 100 μg/ml CDDP) was 1.299. The “Average SRB 24 h” value ([2]; CALU-1 Run 2, 0.1 μg/ml CDDP) was 1.437, the “Average SRB 48 h” value ([2]; CALU-1 Run 2, 0.1 μg/ml CDDP) was 1.79 and the “Average SRB 72 h” value ([2]; CALU-1 Run 2, 0.1 μg/ml CDDP) was 2.674. The “Average SRB 24 h” value ([2]; CALU-1 Run 2, 1 μg/ml CDDP) was 1.725, the “Average SRB 48 h” value ([2]; CALU-1 Run 2, 1 μg/ml CDDP) was 1.837 and the “Average SRB 72 h” value ([2]; CALU-1 Run 2, 1 μg/ml CDDP) was 2.563. For the same compound, the “Average SRB 24 h” value ([2]; CALU-1 Run 2, 10 μg/ml CDDP) was 1.48, the “Average SRB 48 h” value ([2]; CALU-1 Run 2, 10 μg/ml CDDP) was 1.702 and the “Average SRB 72 h” value ([2]; CALU-1 Run 2, 10 μg/ml CDDP) was 2.434. The “Average SRB 24 h” value ([2]; CALU-1 Run 2, 100 μg/ml CDDP) was 1.318, the “Average SRB 48 h” value ([2]; CALU-1 Run 2, 100 μg/ml CDDP) was 1.541 and the “Average SRB 72 h” value ([2]; CALU-1 Run 2, 100 μg/ml CDDP) was 1.575. For the same compound, the “Average SRB 24 h” value [2, 3] was 1.492, the “Average SRB 48 h” value [2, 4] was 1.491 and the “Average SRB 72 h” value [2, 5] was 1.835. For the same compound, the “Average SRB 24 h” value [2, 6] was 1.295, the “Average SRB 48 h” value [2, 7] was 1.463 and the “Average SRB 72 h” value [2, 8] was 1.452. For the same compound, the “Average SRB 24 h” value [2, 9] was 1.139, the “Average SRB 48 h” value [2, 10] was 1.152 and the “Average SRB 72 h” value [2, 11] was 1.193. The “Average SRB 24 h” value [2, 12] was 0.98, the “Average SRB 48 h” value [2, 13] was 1.449 and the “Average SRB 72 h” value [2, 14] was 1.264.
